Data taken from patent US7402559B2, “Composition and method of treatment for urogenital conditions” (MSH Pharma, Incorporated, priority 1999, dated 2008).
Bridge positions count the residues as written; N and C are the ends. Ends that are not written are not given here. I, II: the chains in the order shown.

Tests used:
S. aureus (ATCC 29213) = experiment: S. aureus colony formation (viability); format: cell-based, Staphylococcus aureus; settings: FIG. 1; significant at peptide concentrations of 10^−12 to 10^−4 M; 2 h at 37° C.
Protocol: Cultures of S. aureus (ATCC 29213) were obtained from the collection of the Department of Microbiology, Ospedale Maggiore di Milano. […] Cells were then washed in cold distilled water and diluted with HBSS to a concentration of 100 organisms/ml. One-milliliter aliquots were dispensed on blood agar plates and incubated for 24 hours at 37° C. Viability of the microorganisms was estimated from the colonies formed. In another set of experiments, 500 units of urokinase, a S. aureus growth enhancer, were also incubated with the bacteria (10^5/100 ml ) for four hours at 37° C. in a shaking water bath together with the peptides.

C. albicans [1] = experiment: C. albicans colony formation (CFU viability); format: cell-based, Candida albicans; settings: FIG. 3; 10^−12 to 10^−4 M; p<0.01 vs. control
Protocol: Clinical isolates of C. albicans were obtained from the collection of the Department of Microbiology, Ospedale Maggiore di Milano. Cultures of C. albicans were maintained on Sabouraud's agar slants and periodically transferred to Sabouraud's agar plates and incubated for 48 hours at 28° C. To prepare stationary growth-phase yeast, a colony was taken from the agar plate, transferred into 30 ml of Sabouraud-dextrose broth, and incubated for 72 hours at 32° C. Cells were centrifuged at 1000× g for ten minutes, and the pellet was washed twice with distilled water. Cells were counted and suspended in Hank's balanced salt solution (“HBSS”) to the desired concentration.
Cells were then washed in cold distilled water and diluted with HBSS to a concentration of 100 organisms/ml. One-milliliter aliquots were then dispensed on blood agar plates and incubated for 48 hours at 37° C. The organism's viability was estimated from the number of colonies formed.
[…] The effects of forskolin and ddAdo on the ability of C. albicans to form colonies were determined according to the procedures described in Example II.

C. albicans [2] = experiment: Candida CFU, CKPV dimer versus KPV: C. albicans; format: cell-based; settings: FIG. 17; same molarity (10^−4 M)
Protocol: (§1) C. albicans, C. glabrata. and C. krusei (clinical isolates) were obtained from the collection of the laboratory of Microbiology, Ospedale Maggiore di Milano. Six different isolates for each yeast strain were used. Candida Sp. cells were maintained on Sabouraud's agar slants and periodically transferred to Sabouraud's agar plates and incubated for 48 h at 28° C. To prepare stationary growth phase yeast, a colony was taken from the agar plates and transferred into 5 ml Sabouraud-dextrose broth and incubated for 48 h at 32° C. Cells were centrifuged at 1,000× g for 10 minutes and the pellet was washed twice with distilled water. Cells were counted and suspended in distilled water to obtain 10^7 yeast cells/ml. Viability, determined by the exclusion of 0.01% methylene blue, remained >98%.
(§2) Control tubes received 100 μl of distilled water. All the tests were run in triplicate. After 2 h incubation at 37° C., yeast suspension from each vial was diluted with distilled water to obtain approximately 100 organisms/ml. One milliliter aliquots from each tube were dispensed on blood agar plates and incubated for 48 h at 37° C. to count CFUs. Organism viability was estimated from the number of CFUs in each plate. Only experiments in which CFUs in control plates were between 80 and 120 with a variability in counts less than 10% were used to evaluate effects of the peptides. […]

C. krusei = experiment: Candida CFU, CKPV dimer versus KPV: C. krusei; format: cell-based; settings: FIG. 18; same molarity (10^−4 M)
Protocol: as §1, §2

C. glabrata = experiment: Candida CFU, CKPV dimer versus KPV: C. glabrata; format: cell-based; settings: FIG. 19; same molarity (10^−4 M)
Protocol: as §1, §2

Substance: VPKC-s-s-CKPV (disulfide I:1-II:1; not fully specified (N-terminus, C-terminus)) [CKPV dimer]
- S. aureus colony formation (S. aureus (ATCC 29213)): inhibited
- ability of C albicans to form colonies (C. albicans [1]): greatly reduced
- effectiveness relative to KPV monomer, C. albicans (C. albicans [2]): more than twice as effective
- effectiveness relative to KPV monomer, C. krusei (C. krusei): more than twice as effective
- effectiveness relative to KPV monomer, C. glabrata (C. glabrata): more than twice as effective
